11 molecules from PubChem BioAssay (NCI) can be followed below.

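Step 1: Grow cells in 96-well plates. Step 2: Expose to compound for 48 hours at 5 concentrations. Step 3: Interpolate endpoints linearly; if unreached, use highest concentration. Here, GI50 denotes the concentration required for 50% inhibition of growth. TGI: total growth inhibition.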

Test systems include 786-0 renal; A498 renal; A549 NSCLC; IGROV1 ovarian; M14 melanoma; MOLT-4 leukemia; NCI-H23 lung; SK-OV-3 ovarian; UACC-257 melanoma; UACC-62 melanoma.
What all share (assay): NCI tumour cell line growth inhibition, 48 h

Turning to `CC(=O)OCC1OC(O[C@@H]2C[C@H]3C(C)(C)[C@H](OC(C)=O)CC[C@]3(C)[C@H]3CC[C@@H]4[C@]5(CC[C@@]4(C)[C@@]32C)O[C@@H]([C@H](O)C(C)(C)O)C[C@@H]5C)C(O)C(O)C1O` (stereo not given in full), the GI50 in the assay on 786-0 renal is 8.79 µM; with A498 renal, 11.7 µM; with A549 NSCLC it was 5.1 µM; in the assay with IGROV1 ovarian, 9.57 µM; with M14 melanoma, 5.01 µM; in the assay on MOLT-4 leukemia, 3.13 µM. The GI50 in the assay with NCI-H23 lung was 12.9 µM; in the assay with SK-OV-3 ovarian it was 7.95 µM; in the assay with UACC-257 melanoma, 11.4 µM; in the assay on UACC-62 melanoma, 6.36 µM. In addition, the TGI in the assay on 786-0 renal amounted to 21.9 µM; in the assay on A498 renal it was 25.9 µM; in the assay with A549 NSCLC, 18.3 µM; in the assay with IGROV1 ovarian, 21.6 µM; with M14 melanoma, 17.6 µM; in the assay with MOLT-4 leukemia, 12.2 µM. Moreover, the TGI was 26.9 µM in the assay with NCI-H23 lung, 20.7 µM in the assay on SK-OV-3 ovarian, 24 µM in the assay on UACC-257 melanoma and 19.7 µM with UACC-62 melanoma.

For the molecule `C=C(C)[C@@H]1CC[C@]2(C#N)CC[C@]3(C)[C@H](CC[C@@H]4[C@@]5(C)CCCNC(C)(C)[C@@H]5CC[C@]43C)[C@@H]12`, the GI50 in the assay on 786-0 renal is 1.69 µM; in the assay with A498 renal it was 10.1 µM; in the assay with A549 NSCLC, 1.94 µM; in the assay on IGROV1 ovarian, 1.82 µM; in the assay on M14 melanoma, 1.83 µM; in the assay on MOLT-4 leukemia, 2.14 µM. Further, the GI50 is 3.32 µM in the assay on NCI-H23 lung, 11.1 µM in the assay with SK-OV-3 ovarian, 2.27 µM in the assay with UACC-257 melanoma and 1.96 µM in the assay with UACC-62 melanoma. Also, the TGI in the assay with 786-0 renal stood at 3.07 µM; in the assay on A498 renal it was 23 µM; with A549 NSCLC it was 3.77 µM; in the assay with IGROV1 ovarian it was 3.47 µM; in the assay with M14 melanoma, 3.49 µM; in the assay with MOLT-4 leukemia, 5.57 µM. Moreover, the TGI with NCI-H23 lung is 10.9 µM; with SK-OV-3 ovarian, 25.4 µM; in the assay with UACC-257 melanoma, 4.3 µM; in the assay with UACC-62 melanoma, 3.6 µM.

Consider `O=C1CCC(c2ccccc2)(c2ccccc2)CC1`, for which the TGI in the assay with 786-0 renal, in the assay on A498 renal, with A549 NSCLC, with IGROV1 ovarian, in the assay with M14 melanoma and with MOLT-4 leukemia was above 100 µM each time. For the same molecule, the TGI in the assay with NCI-H23 lung, in the assay on SK-OV-3 ovarian, in the assay with UACC-257 melanoma and with UACC-62 melanoma was above 100 µM in each case.

Regarding `N#CC(C#N)=C/C=C/c1cccc([N+](=O)[O-])c1`, the GI50 is 1.51 µM in the assay on 786-0 renal; 1.99 µM in the assay on A498 renal; 2.29 µM in the assay on A549 NSCLC; 0.71 µM in the assay on IGROV1 ovarian; 0.658 µM in the assay with M14 melanoma; 0.391 µM in the assay on MOLT-4 leukemia. Also, the GI50 in the assay with NCI-H23 lung is 1.59 µM; in the assay with SK-OV-3 ovarian, 2.62 µM; in the assay on UACC-257 melanoma it was 1.33 µM; with UACC-62 melanoma, 1.3 µM. In addition, the TGI in the assay on 786-0 renal was determined as 3.17 µM; in the assay with A498 renal it was 5.21 µM; in the assay with A549 NSCLC it was 16.8 µM; in the assay with IGROV1 ovarian, 9.32 µM; with M14 melanoma, 2.18 µM; with MOLT-4 leukemia, 13.6 µM. Moreover, the TGI in the assay on NCI-H23 lung came out at 4.26 µM; with SK-OV-3 ovarian, 9.2 µM; in the assay on UACC-257 melanoma, 3.94 µM; in the assay on UACC-62 melanoma, 2.96 µM.

On to `C[Si](C)(C)[C@@]1([Se]c2ccccc2)CC[C@@H]1C(=O)c1ccccc1`, for which the TGI in the assay on 786-0 renal is above 100 µM; with A498 renal it was above 100 µM; in the assay with A549 NSCLC, above 100 µM; in the assay with IGROV1 ovarian it was above 100 µM; in the assay on M14 melanoma, above 100 µM; in the assay with MOLT-4 leukemia, 75.1 µM. Moreover, the TGI in the assay with NCI-H23 lung, in the assay with SK-OV-3 ovarian, in the assay with UACC-257 melanoma and in the assay with UACC-62 melanoma was above 100 µM in each case.

`COc1cc(C(=O)c2c(-c3ccccc3)oc3ccccc23)cc(OC)c1O`: the GI50 in the assay with 786-0 renal was 4.15 µM; in the assay on A498 renal, 2.09 µM; in the assay with A549 NSCLC, 4.41 µM; with IGROV1 ovarian it was 2.6 µM; in the assay with M14 melanoma, 0.58 µM; in the assay with MOLT-4 leukemia it was 2.69 µM. The GI50 was 3.96 µM with NCI-H23 lung, 6.24 µM in the assay on SK-OV-3 ovarian, 16 µM with UACC-257 melanoma and 0.975 µM in the assay with UACC-62 melanoma. Further, the TGI is 17 µM with 786-0 renal; 5.76 µM in the assay on A498 renal; above 100 µM in the assay on A549 NSCLC; 18.7 µM in the assay with IGROV1 ovarian; 10.7 µM in the assay on M14 melanoma; 22.2 µM in the assay with MOLT-4 leukemia. The TGI is 22.6 µM with NCI-H23 lung, 52.1 µM in the assay with SK-OV-3 ovarian, 64.3 µM in the assay on UACC-257 melanoma and 16 µM in the assay with UACC-62 melanoma.

With `O=C(Nc1ccc(-c2nc3ccc(NC(=O)c4ccc(Cl)cc4)cc3[nH]2)cc1)c1ccc(Cl)cc1`, the GI50 in the assay with 786-0 renal was 0.308 µM; in the assay with A498 renal, 3.56 µM; in the assay with A549 NSCLC it was 2.05 µM; with IGROV1 ovarian it was 6.73 µM; with M14 melanoma, 5.28 µM; in the assay with MOLT-4 leukemia it was 0.901 µM. The GI50 is 4.63 µM in the assay on NCI-H23 lung, 11.8 µM in the assay on SK-OV-3 ovarian, 11.5 µM in the assay with UACC-257 melanoma and 4.21 µM in the assay on UACC-62 melanoma. In addition, the TGI with 786-0 renal amounted to 2.26 µM; with A498 renal it was 16.8 µM; in the assay on A549 NSCLC it was 5.08 µM; with IGROV1 ovarian, 19.6 µM; with M14 melanoma, 18 µM; with MOLT-4 leukemia, 8.31 µM. The TGI in the assay on NCI-H23 lung is 16.4 µM; with SK-OV-3 ovarian, 24.2 µM; in the assay with UACC-257 melanoma, 24.1 µM; in the assay with UACC-62 melanoma, 16.4 µM.

For the molecule `NC(=NC1C2CC3CC(C2)CC1C3)Nc1ccc(I)cc1` (stereo not given), the GI50 was 4.03 µM with 786-0 renal; 2.47 µM in the assay with A498 renal; 3.44 µM with A549 NSCLC; 3.2 µM in the assay with IGROV1 ovarian; 2.08 µM with M14 melanoma; 2.22 µM in the assay with MOLT-4 leukemia. Besides, the GI50 is 2.77 µM with NCI-H23 lung, 8.68 µM with SK-OV-3 ovarian, 2.16 µM in the assay with UACC-257 melanoma and 2.88 µM with UACC-62 melanoma. Also, the TGI worked out at 15.5 µM in the assay with 786-0 renal; 6.77 µM in the assay on A498 renal; 14.2 µM in the assay on A549 NSCLC; 13.5 µM in the assay on IGROV1 ovarian; 5.04 µM with M14 melanoma; 8.79 µM in the assay on MOLT-4 leukemia. In addition, the TGI amounted to 10.7 µM in the assay with NCI-H23 lung, 23.3 µM with SK-OV-3 ovarian, 5.21 µM in the assay with UACC-257 melanoma and 9.33 µM with UACC-62 melanoma.

`COc1cc([N+](=O)[O-])c2ncccc2c1O`: the GI50 with 786-0 renal was 17.9 µM; with A498 renal, 1.31 µM; in the assay on A549 NSCLC it was 0.32 µM; with IGROV1 ovarian, 4.51 µM; in the assay on M14 melanoma, 1.45 µM; in the assay with MOLT-4 leukemia, 49.1 µM. Further, the GI50 with NCI-H23 lung is 1.37 µM; in the assay on SK-OV-3 ovarian, 3.36 µM; with UACC-257 melanoma, 2.56 µM; in the assay with UACC-62 melanoma, 1.94 µM. The TGI in the assay with 786-0 renal is above 100 µM; in the assay with A498 renal it was 4.25 µM; in the assay with A549 NSCLC, 1.74 µM; in the assay with IGROV1 ovarian it was 25.5 µM; in the assay on M14 melanoma it was 3.02 µM; in the assay with MOLT-4 leukemia it was above 100 µM. In addition, the TGI in the assay with NCI-H23 lung was found to be 4.8 µM; in the assay on SK-OV-3 ovarian, 14.4 µM; in the assay on UACC-257 melanoma, 7.65 µM; in the assay on UACC-62 melanoma, 5.1 µM.

Consider `COc1ccc(-c2nc(N)nc(-c3cc(C)ccc3O)c2Cl)cc1`, for which the TGI in the assay on 786-0 renal, in the assay on A498 renal, with A549 NSCLC, with IGROV1 ovarian, in the assay with M14 melanoma and in the assay on MOLT-4 leukemia was above 100 µM each time. Moreover, the TGI in the assay with NCI-H23 lung is above 100 µM; with SK-OV-3 ovarian, 94.2 µM; with UACC-257 melanoma, above 100 µM; in the assay with UACC-62 melanoma, above 100 µM.

On to `O=C1C=Cc2noc3cccc1c23`, for which the TGI in the assay with 786-0 renal was 20.7 µM; in the assay with A498 renal, 27.5 µM; with A549 NSCLC it was 38.7 µM; with IGROV1 ovarian it was 29.4 µM; with M14 melanoma, 23.2 µM; in the assay with MOLT-4 leukemia, above 100 µM. The TGI in the assay with NCI-H23 lung came out at 26 µM; with SK-OV-3 ovarian it was 32.1 µM; with UACC-257 melanoma, 26.4 µM; with UACC-62 melanoma, 13.4 µM.
